Data from PMC4926109, “Pharmacological targeting of glucose-6-phosphate dehydrogenase in human erythrocytes by Bay 11–7082, parthenolide and dimethyl fumarate” (Scientific Reports, 2016).
Counter-ions that a name gives are not always drawn. Like-named read-outs stand apart in the source and are kept apart here.

Key:
6PGDH = biological target: T1, 6PGDH (Homo sapiens, UniProt P52209); experiment: 6PGDH activity in lysates of inhibitor-treated erythrocytes; format: cell-based; details: at the concentrations used, data not shown
T1 construct: endogenous in cells; host or cells: human erythrocytes (RBC concentrates), treated 24 h, then lysed
T1 sequence (P52209 2-483 limits assumed): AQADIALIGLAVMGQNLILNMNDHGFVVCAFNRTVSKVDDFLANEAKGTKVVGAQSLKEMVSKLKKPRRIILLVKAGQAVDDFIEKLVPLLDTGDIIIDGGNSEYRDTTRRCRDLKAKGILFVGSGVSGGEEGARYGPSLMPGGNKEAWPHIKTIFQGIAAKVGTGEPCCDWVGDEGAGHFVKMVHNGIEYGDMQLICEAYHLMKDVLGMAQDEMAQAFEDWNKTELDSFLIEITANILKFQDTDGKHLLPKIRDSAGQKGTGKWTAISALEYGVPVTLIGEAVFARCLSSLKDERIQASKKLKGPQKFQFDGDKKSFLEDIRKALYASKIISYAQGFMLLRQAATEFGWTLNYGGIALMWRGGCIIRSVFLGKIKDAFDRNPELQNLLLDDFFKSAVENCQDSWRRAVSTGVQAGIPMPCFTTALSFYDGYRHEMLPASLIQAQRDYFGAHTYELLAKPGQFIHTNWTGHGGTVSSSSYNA
Protocol: (§1) DMSO-treated erythrocytes served as negative controls. Determinations of the enzymatic activities of G6PDH, 6PGDH and GR (+/− FAD) were performed in leukocytes- and platelets-free erythrocyte lysates according to standard biochemical procedures. After 10 min incubation (20 min for GR) at 37 °C the reaction was started by adding substrate or co-factor. Changes in absorbance at 340 nm were recorded at 1 min intervals for 20 min (Infinite 200 Nanoquant spectrophotometer; Tecan, Männedorf, Switzerland). Specific activity of all enzymes was expressed as U/g Hb. The combined activity of G6PDH and 6PGDH was determined by estimating the conversion of NADP^+ to NADPH in the presence of glucose-6-phosphate (600 μM). The activity of 6PGDH alone was then measured by the conversion of NADP^+ to NADPH in the presence of 6-phosphogluconate (600 μM). Finally, G6PDH activity was calculated by subtracting 6PGDH activity from total dehydrogenase activity.

[1] = tested on: GSH in mature human erythrocytes; experiment: Intracellular GSH measurement by HPLC (GS-NEM conjugate); format: cell-based; details: for GSH depletion / GSH: 24 h; for GSH: 0.6% Hct, DMSO control 7.52; for IC50: 24 h in Ringer solution, 0.6% Hct (mean GSH 15 μM), read-out: IC50 (GSH depletion)
Protocol: (§2) DMSO-treated erythrocytes served as negative controls. After incubation, erythrocytes were treated with 0.6 mM (final concentration) NEM prepared as a 310 mM stock in H2O. NEM functioned as the best alkylating agent for GSH conjugation to prevent sample manipulation-induced oxidation of GSH. After a 2-min incubation at room temperature, samples were centrifuged at 210 g for 10 min in order to obtain RBC pellets. These were immediately stored at −20 °C until GSH and GSSG analyses were performed. All measurements were carried out within one week after the treatment. GSH and GSSG were measured in the clear supernatant obtained by treatment of 0.1 ml RBCs with 0.12 ml 15% (w/v) trichloroacetic acid. GSH analysis was carried out by high-performance liquid chromatography (HPLC), as recently reported. […] GSSG was measured photometrically by the GSH recycling method with slight modifications. For hemoglobin determination, one aliquot of the RBC suspensions (10 μl) was hemolysed by 1:200 dilution with H2O[62]. The HPLC analyses were carried out with an Agilent series 1100 instrument (Agilent Technologies, Milan, Italy). The photometric analyses were performed with a Jasco V-530 instrument (Jasco Europe s.r.l. Cremella, Como, Italy).

[2] = tested on: GSSG in mature human erythrocytes; experiment: Intracellular GSSG measurement, photometric GSH recycling method; format: cell-based; details: 24 h, 0.6% Hct, DMSO control 0.06
Protocol: as §2

[3] = tested on: mature human erythrocytes; experiment: Forward scatter (FSC, GeoMean) by flow cytometry, cell volume / cell shrinkage; format: cell-based; details: for GeoMean: Hct 0.6%; for decrease of cell volume (forward scatter): increasing concentrations, 24 h and 48 h, 0.4% Hct
Protocol: (§3) After incubation, 2·10^6 RBCs were washed in 500 μl Annexin-binding buffer. RBC pellets were then vortexed gently to get a homogenous cell suspension. To detect phosphatidylserine (PS) on the outer leaflet of the plasma membrane, these cells were subsequently stained with 32 μl Annexin V-FLUOS at a 1:33 dilution and mixed gently on a vortex mixer. After 20 min incubation in the dark at room temperature, 200 μl of Annexin-binding buffer was added to each sample, thoroughly vortexed to achieve single cell suspensions, and analysed by flow cytometry on a FACS-Calibur (Becton Dickinson, Heidelberg, Germany). Cell volume was determined by forward scatter (FSC), and Annexin V-FLUOS binding was measured in the FL1-channel.

[4] = biological target: T2, glucose-6-phosphate dehydrogenase (G6PDH) (Homo sapiens, UniProt P11413); experiment: G6PDH activity in lysates of inhibitor-treated erythrocytes; format: cell-based; details: for EC100 (inhibition of G6PDH activity) / EC50: erythrocytes treated 24 h, 0.6% Hct; for EC50: read-out: EC50 (inhibition of G6PDH activity)
T2 construct: endogenous in cells; host or cells: human erythrocytes (RBC concentrates), treated 24 h, then lysed
T2 sequence (P11413 2-515 limits assumed): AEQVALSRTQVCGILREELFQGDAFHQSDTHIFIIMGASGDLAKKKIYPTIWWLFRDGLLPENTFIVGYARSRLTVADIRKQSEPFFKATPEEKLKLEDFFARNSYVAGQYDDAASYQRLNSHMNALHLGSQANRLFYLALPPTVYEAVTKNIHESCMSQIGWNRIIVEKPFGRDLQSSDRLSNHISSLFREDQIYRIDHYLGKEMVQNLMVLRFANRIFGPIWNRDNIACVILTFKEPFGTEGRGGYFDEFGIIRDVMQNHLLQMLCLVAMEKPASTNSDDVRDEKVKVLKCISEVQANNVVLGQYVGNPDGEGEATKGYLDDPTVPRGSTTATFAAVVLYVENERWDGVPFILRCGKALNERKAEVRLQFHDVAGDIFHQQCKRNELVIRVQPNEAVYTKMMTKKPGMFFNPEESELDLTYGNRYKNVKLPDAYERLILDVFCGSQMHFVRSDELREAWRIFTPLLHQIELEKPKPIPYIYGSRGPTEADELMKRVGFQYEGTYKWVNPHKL
Protocol: as §1

Trypanosoma brucei = experiment: In vitro growth inhibition of parasite culture (own unpublished data); format: cell-based; details: preliminary work
[5] = tested on: mature human erythrocytes; experiment: MCV and MCHC of inhibitor-treated erythrocytes (ADVIA 120 Hematology System); format: cell-based; details: Hct 0.6%
Protocol: Erythrocyte concentrates (0.6% Hct), suspended in 30 ml Ringer solution were treated with Bay 11–7082 (20 μM), parthenolide (50 μM) and DMF (140 μM) for 24 h, respectively. DMSO (0.2% (v/v))-treated erythrocytes served as negative controls. After incubation, samples were centrifuged at 210 g for 10 min at room temperature in order to obtain RBC pellets. Ionomycin (0.25 μM)-treated erythrocytes served as positive controls, and were first incubated in Ringer solution in the absence of ionomycin for 21.5 h. Subsequently, the cells were treated with ionomycin for 2.5 h, and the MCV and MCHC values were determined. The MCV and MCHC analysis was carried out with an ADVIA 120 Hematology System Instrument (Siemens, Germany).

human erythrocytes [6] = details: 20 µM
Protocol: (§4) RBC concentrates (0.4% Hct) were treated with varying concentrations of Bay 11–7082, parthenolide or DMF for 24 h or 48 h, then hemolysis was determined. Briefly, after incubation, 600 μl suspension containing 1.2·10^7 RBCs were centrifuged for 4 min at 420 g, 4 °C, and the supernatants were harvested. To quantify hemolysis, the hemoglobin concentration of the supernatant was determined photometrically at 405 nm. The absorption of the supernatant of RBCs lysed in distilled water was defined as 100% hemolysis.

human erythrocytes [7] = experiment: Eryptosis: Annexin V binding to phosphatidylserine, flow cytometry; format: cell-based; details: increasing concentrations, same donors, 24 h and 48 h
Protocol: as §3

[8] = biological target: T3, glutathione reductase (GR) (Homo sapiens, UniProt P00390); experiment: GR activity (+/- FAD) in lysates of inhibitor-treated erythrocytes; format: cell-based
T3 construct: endogenous in cells; host or cells: human erythrocytes (RBC concentrates), treated 24 h, then lysed
T3 sequence (P00390 1-479 isoform P00390-2): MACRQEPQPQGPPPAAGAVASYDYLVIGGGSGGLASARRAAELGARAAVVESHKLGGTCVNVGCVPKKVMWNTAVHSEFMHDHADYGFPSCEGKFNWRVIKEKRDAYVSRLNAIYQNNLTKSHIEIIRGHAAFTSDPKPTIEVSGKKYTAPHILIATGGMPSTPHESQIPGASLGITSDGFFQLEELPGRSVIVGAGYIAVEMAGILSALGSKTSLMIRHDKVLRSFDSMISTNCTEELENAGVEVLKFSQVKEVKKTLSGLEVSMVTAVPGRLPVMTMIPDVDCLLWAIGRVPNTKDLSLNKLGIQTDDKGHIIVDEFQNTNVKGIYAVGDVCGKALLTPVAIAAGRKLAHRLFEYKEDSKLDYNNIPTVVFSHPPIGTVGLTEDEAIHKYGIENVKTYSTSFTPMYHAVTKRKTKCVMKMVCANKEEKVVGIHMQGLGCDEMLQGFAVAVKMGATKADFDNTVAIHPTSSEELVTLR
Protocol: as §1

human erythrocytes [9] = experiment: Hemolysis (hemoglobin in supernatant, 405 nm); details: 24 h / 48 h, compared with Bay 11–7082
Protocol: as §4

[10] = 20 μM, 24 h incubation, blood group A Rhesus +
[11] = 20 μM, 24 h incubation, blood group B Rhesus +
[12] = 20 μM, 24 h incubation, blood group O Rhesus +
[13] = 140 μM, 24 h incubation, blood group A Rhesus +
[14] = 140 μM, 24 h incubation, blood group B Rhesus +
[15] = 140 μM, 24 h incubation, blood group O Rhesus +
[16] = 0.25 μM, 2.5 h incubation (after 21.5 h in Ringer), positive control, blood group A Rhesus +
[17] = 0.25 μM, 2.5 h incubation (after 21.5 h in Ringer), positive control, blood group B Rhesus +
[18] = 0.25 μM, 2.5 h incubation (after 21.5 h in Ringer), positive control, blood group O Rhesus +
[19] = 50 μM, 24 h incubation, blood group A Rhesus +
[20] = 50 μM, 24 h incubation, blood group B Rhesus +
[21] = 50 μM, 24 h incubation, blood group O Rhesus +

SMILES: Cc1ccc(S(=O)(=O)/C=C/C#N)cc1 [Bay 11–7082]
- inhibitory effect on 6PGDH activity (6PGDH): did not observe any inhibitory effect
- GSH depletion ([1]; 20 μM final concentration): totally deplete GSH
- GSH ([1]; 20 μM): 0.00 nmol/mg Hb
- IC50 [1]: 7.6 µM
- GSSG ([2]; 20 μM): 0.03 nmol/mg Hb
- GeoMean [3, 10]: 422.4
- GeoMean [3, 11]: 339.3
- GeoMean [3, 12]: 410.7
- decrease of cell volume (forward scatter) [3]: marked decrease
- EC100 (inhibition of G6PDH activity) [4]: 20
- EC50 [4]: 10 µM
- in vitro growth inhibitory effect on parasites' culture (Trypanosoma brucei): significant in vitro growth inhibitory effect
- MCHC [5, 10]: 33.9 g/dL
- MCV [5, 10]: 84.1 fL
- MCHC [5, 11]: 37 g/dL
- MCV [5, 11]: 78.5 fL
- MCHC [5, 12]: 34.1 g/dL
- MCV [5, 12]: 86.3 fL
- hemolysis (share of total population) (human erythrocytes [6]): approx. 3%
- eryptosis (Annexin V binding), comparison of the three inhibitors (human erythrocytes [7]): strongest effect
- inhibition of GR activity ([8]; 20 μM, 24 h): 100%
- EC100 (inhibition of GR activity) ([8]; erythrocytes treated 24 h, 0.6% Hct): 20
- EC50 ([8]; erythrocytes treated 24 h, 0.6% Hct, read-out: EC50 (inhibition of GR activity)): 10 µM
- GR activity after addition of exogenous FAD ([8]; samples previously treated with 20 μM for 24 h): did not demonstrate significantly increased GR activity in the presence of FAD

SMILES: COC(=O)/C=C/C(=O)OC [DMF, dimethyl fumarate]
- inhibitory effect on 6PGDH activity (6PGDH): did not observe any inhibitory effect
- GSH depletion ([1]; 140 μM): almost totally deplete GSH
- GSH ([1]; 140 μM): 0.17 nmol/mg Hb
- IC50 ([1]; Homo sapiens, Erythrocyte): 20 µM
- GSSG ([2]; 140 μM): 0.03 nmol/mg Hb
- GeoMean [3, 13]: 426.7
- GeoMean [3, 14]: 427.3
- GeoMean [3, 15]: 448
- decrease of cell volume (forward scatter) [3]: to a lesser extent
- G6PDH inactivation ([4]; 140 μM, 24 h): ~ 50%
- EC50 [4]: 140 µM
- in vitro growth inhibitory effect on parasites' culture (Trypanosoma brucei): significant in vitro growth inhibitory effect
- MCHC [5, 13]: 33.3 g/dL
- MCV [5, 13]: 85.6 fL
- MCHC [5, 14]: 33.5 g/dL
- MCV [5, 14]: 83.5 fL
- MCHC [5, 15]: 32.9 g/dL
- MCV [5, 15]: 88.2 fL
- inhibition at 140 µM ([8]; 140 μM, 24 h): 60%
- ratio of hemolysis to eryptosis (human erythrocytes [9]): even lower as compared with Bay 11–7082

SMILES: C[C@H](CCC(=O)O)C[C@H](C)C[C@H](C)C(=O)/C=C(\O)[C@H](C)C[C@H](C)C/C=C/[C@@H](C)[C@@H](O)[C@@H](C)[C@@H](O)C[C@@H]1CC[C@@](C)([C@H]2CC[C@@](C)([C@@H](C)O)O2)O1 [Ionomycin]
- GeoMean [3, 16]: 209.3
- GeoMean [3, 17]: 166.2
- GeoMean [3, 18]: 186.3
- MCHC [5, 16]: 53 g/dL
- MCV [5, 16]: 73.3 fL
- MCHC [5, 17]: 50.4 g/dL
- MCV [5, 17]: 72.2 fL
- MCHC [5, 18]: 55.7 g/dL
- MCV [5, 18]: 75.8 fL

SMILES: C=C1C(=O)O[C@H]2[C@H]1CC/C(C)=C/CC[C@@]1(C)O[C@@H]21 [Parthenolide, parthenolide]
- inhibitory effect on 6PGDH activity (6PGDH): did not observe any inhibitory effect
- GSH depletion ([1]; 50 μM): almost totally deplete GSH
- GSH ([1]; 50 μM): 0.30 nmol/mg Hb
- IC50 ([1]; Homo sapiens, Erythrocyte): 10 µM
- GSSG ([2]; 50 μM): 0.03 nmol/mg Hb
- GeoMean [3, 19]: 425.24
- GeoMean [3, 20]: 418.8
- GeoMean [3, 21]: 451.5
- decrease of cell volume (forward scatter) [3]: to a lesser extent
- G6PDH inhibition ([4]; 50 μM, 24 h): total G6PDH inhibition
- inhibition at 50 µM ([4]; 50 μM, 24 h): 100%
- EC100 (inhibition of G6PDH activity) [4]: 50 µM
- EC50 [4]: 12 µM
- in vitro growth inhibitory effect on parasites' culture (Trypanosoma brucei): significant in vitro growth inhibitory effect
- MCHC [5, 19]: 33.5 g/dL
- MCV [5, 19]: 84.1 fL
- MCHC [5, 20]: 34.4 g/dL
- MCV [5, 20]: 82.2 fL
- MCHC [5, 21]: 33.8 g/dL
- MCV [5, 21]: 87 fL
- ability to inhibit GR activity ([8]; parthenolide 1–50 μM, 24 h): Unlike parthenolide, only Bay 11–7082 and DMF were able to inhibit the GR activity
- ratio of hemolysis to eryptosis (human erythrocytes [9]): even lower as compared with Bay 11–7082
